pKi: −log10 of the molar value.
Experiments:
Glutamyl aminopeptidase = Glutamyl aminopeptidase (Homo sapiens, UniProt Q07075); assay: Binding affinity against recombinant Aminopeptidase A
Aminopeptidase N = molecular target: T1, Aminopeptidase N (Sus scrofa, UniProt P15145)
T1 sequence (P15145 whole entry): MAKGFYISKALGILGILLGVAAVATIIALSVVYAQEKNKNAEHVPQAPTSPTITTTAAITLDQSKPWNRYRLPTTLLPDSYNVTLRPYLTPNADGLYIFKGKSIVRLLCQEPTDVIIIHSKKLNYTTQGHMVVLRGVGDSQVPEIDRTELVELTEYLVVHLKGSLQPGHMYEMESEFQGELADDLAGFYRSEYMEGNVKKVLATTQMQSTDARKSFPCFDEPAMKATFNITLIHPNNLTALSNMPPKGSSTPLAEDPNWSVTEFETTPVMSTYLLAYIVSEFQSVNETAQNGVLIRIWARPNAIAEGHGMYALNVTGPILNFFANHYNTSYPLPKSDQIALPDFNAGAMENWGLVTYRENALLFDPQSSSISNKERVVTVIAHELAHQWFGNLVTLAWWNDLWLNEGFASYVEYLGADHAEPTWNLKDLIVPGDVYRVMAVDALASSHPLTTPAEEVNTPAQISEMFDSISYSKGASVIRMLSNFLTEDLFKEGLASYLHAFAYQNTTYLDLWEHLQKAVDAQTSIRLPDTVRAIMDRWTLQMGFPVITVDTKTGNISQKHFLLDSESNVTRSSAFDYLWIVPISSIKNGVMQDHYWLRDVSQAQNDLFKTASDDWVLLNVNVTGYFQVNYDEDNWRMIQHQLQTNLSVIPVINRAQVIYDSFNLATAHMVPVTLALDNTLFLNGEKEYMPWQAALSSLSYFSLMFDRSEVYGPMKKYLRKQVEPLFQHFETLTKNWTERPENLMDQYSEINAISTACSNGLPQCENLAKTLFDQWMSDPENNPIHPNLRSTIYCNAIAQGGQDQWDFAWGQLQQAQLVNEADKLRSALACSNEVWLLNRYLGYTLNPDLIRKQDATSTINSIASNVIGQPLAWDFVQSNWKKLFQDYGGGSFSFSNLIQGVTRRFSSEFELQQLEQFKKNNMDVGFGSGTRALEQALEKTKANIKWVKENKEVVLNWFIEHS
Description: Binding affinity against aminopeptidase N from pig kidney

[1] = molecular target: T2, Angiotensin-converting enzyme (Rattus norvegicus, UniProt P47820); assay: Binding affinity against Angiotensin I converting enzyme from rat testis
T2 sequence (P47820 whole entry): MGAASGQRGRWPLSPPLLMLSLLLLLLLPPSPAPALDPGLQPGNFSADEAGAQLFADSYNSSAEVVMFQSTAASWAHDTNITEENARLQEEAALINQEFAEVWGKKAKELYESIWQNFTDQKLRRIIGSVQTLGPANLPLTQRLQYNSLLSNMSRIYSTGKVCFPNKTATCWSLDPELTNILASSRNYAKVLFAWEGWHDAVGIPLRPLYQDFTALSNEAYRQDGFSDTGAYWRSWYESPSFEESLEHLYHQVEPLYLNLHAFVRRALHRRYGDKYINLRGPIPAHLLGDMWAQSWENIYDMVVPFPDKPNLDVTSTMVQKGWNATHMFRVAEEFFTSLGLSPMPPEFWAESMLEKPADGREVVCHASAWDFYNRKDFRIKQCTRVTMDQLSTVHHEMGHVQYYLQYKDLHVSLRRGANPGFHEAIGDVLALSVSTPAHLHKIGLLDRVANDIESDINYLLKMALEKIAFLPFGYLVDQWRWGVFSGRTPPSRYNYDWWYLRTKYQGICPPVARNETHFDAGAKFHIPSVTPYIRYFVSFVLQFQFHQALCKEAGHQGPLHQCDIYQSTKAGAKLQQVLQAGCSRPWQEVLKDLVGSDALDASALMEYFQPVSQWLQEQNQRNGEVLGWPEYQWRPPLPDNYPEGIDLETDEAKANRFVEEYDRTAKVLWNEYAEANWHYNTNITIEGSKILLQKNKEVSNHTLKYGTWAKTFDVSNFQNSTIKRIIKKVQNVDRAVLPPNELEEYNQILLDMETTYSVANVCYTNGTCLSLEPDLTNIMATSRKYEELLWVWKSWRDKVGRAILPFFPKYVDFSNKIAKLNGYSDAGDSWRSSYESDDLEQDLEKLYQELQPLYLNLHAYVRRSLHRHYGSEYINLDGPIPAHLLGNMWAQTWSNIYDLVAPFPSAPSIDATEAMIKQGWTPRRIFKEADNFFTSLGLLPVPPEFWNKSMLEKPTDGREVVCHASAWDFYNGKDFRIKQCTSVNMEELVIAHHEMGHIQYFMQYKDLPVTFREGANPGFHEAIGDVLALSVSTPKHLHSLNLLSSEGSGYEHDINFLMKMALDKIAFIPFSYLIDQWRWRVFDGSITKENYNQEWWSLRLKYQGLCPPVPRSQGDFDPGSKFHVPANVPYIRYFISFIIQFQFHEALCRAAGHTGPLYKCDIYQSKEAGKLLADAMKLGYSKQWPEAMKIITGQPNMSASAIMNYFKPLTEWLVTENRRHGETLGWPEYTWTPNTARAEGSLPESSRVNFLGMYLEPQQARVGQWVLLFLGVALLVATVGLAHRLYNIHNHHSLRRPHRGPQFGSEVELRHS

Neprilysin = molecular target: T3, Neprilysin (Oryctolagus cuniculus, UniProt P08049); assay: Binding affinity against NEP from rabbit kidney(neutral endopeptidase)
T3 sequence (P08049 whole entry): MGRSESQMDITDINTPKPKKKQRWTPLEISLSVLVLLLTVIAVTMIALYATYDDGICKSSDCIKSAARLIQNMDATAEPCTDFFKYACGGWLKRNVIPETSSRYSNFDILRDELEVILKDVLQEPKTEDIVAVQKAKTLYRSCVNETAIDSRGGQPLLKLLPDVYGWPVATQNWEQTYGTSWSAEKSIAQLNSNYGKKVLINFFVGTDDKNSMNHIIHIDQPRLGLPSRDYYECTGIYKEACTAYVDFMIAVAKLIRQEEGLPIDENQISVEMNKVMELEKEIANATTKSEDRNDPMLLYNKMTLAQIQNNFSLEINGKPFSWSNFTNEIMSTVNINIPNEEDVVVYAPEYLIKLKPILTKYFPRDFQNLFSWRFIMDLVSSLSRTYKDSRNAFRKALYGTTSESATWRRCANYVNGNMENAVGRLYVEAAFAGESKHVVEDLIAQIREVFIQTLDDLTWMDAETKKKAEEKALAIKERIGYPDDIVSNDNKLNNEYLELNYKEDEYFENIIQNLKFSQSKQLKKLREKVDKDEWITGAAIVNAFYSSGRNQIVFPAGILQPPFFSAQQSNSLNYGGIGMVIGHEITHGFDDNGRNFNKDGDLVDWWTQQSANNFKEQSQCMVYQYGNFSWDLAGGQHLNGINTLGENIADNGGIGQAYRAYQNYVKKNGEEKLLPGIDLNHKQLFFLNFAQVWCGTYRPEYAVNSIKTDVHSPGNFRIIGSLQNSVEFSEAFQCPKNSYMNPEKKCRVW

Glutamyl aminopeptidase, sequence (Q07075 whole entry): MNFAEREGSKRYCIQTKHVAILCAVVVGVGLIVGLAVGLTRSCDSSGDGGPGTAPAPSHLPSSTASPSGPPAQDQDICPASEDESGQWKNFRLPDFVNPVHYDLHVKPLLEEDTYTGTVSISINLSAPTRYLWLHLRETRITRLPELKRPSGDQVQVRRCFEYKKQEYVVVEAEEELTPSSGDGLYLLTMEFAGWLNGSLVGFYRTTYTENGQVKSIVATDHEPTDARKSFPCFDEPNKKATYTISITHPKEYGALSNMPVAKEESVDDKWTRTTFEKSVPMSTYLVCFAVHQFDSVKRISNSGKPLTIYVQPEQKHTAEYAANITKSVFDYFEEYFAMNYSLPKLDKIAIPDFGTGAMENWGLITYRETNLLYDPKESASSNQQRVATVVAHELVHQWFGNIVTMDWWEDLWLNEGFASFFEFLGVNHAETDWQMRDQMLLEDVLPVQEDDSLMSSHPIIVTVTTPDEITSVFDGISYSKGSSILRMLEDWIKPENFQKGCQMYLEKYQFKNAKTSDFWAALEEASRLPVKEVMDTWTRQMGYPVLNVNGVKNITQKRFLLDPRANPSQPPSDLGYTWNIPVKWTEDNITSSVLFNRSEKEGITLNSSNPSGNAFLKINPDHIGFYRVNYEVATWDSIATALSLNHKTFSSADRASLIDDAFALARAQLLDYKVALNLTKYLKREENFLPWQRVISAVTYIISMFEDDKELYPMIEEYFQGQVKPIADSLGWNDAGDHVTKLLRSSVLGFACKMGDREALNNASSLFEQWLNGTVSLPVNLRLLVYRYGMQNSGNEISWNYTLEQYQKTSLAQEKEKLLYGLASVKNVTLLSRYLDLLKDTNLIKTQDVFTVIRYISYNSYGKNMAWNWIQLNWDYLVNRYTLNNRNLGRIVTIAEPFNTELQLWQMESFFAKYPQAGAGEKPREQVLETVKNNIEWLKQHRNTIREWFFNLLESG

pKi (Glutamyl aminopeptidase) | pKi (Aminopeptidase N) | pKi [1] | pKi (Neprilysin) | SMILES
7.29 | 5.47 | – | – | CC[C@@H](C)[C@H](NCC(S)C(N)CCS(N)(=O)=O)C(=O)N[C@@H](CC(=O)O)C(=O)O (some centres undefined)
6.82 | 5.15 | – | – | NC(CCS(N)(=O)=O)C(S)C(=O)N[C@@H](Cc1ccc(O)cc1)C(=O)N[C@@H](CC(=O)O)C(=O)O (some centres undefined)
7.10 | 4.55 | – | – | CC[C@@H](C)[C@H](NC(=O)C(S)C(N)CCS(N)(=O)=O)C(=O)N[C@@H](CC(=O)O)C(=O)O (some centres undefined)
9.06 | – | 6.59 | 6.66 | CC[C@@H](C)[C@H](NC(=O)[C@H](S)[C@H](N)CCS(=O)(=O)O)C(=O)N1CCC(C(=O)O)[C@H]1C(=O)O (some centres undefined)
5.38 | < 5.00 | – | – | CC[C@@H](C)[C@H](NC(=O)[C@@H](S)[C@H](N)CCS(=O)(=O)O)C(N)=O
7.80 | 5.41 | – | – | CC[C@@H](C)[C@H](NC(=O)[C@@H](S)[C@@H](N)CCC(=O)O)C(=O)N[C@@H](CC(=O)O)C(=O)O
8.37 | 4.51 | 5.74 | 7.47 | N[C@H](CCS(=O)(=O)O)[C@@H](S)C(=O)N[C@@H](Cc1ccc(O)cc1)C(=O)N[C@@H](CC(=O)O)C(=O)O
6.33 | 4.29 | – | – | CC[C@@H](C)[C@H](NC(=O)[C@@H](S)[C@H](N)CCS(=O)(=O)O)C(=O)N[C@@H](CC(=O)O)C(N)=O
7.82 | 4.36 | – | – | CC[C@@H](C)[C@H](NC(=O)[C@H](S)[C@H](N)CCS(=O)(=O)O)C(=O)N[C@@H](CC(=O)O)C(N)=O
5.92 | < 5.00 | – | – | CC[C@@H](C)[C@H](NC(=O)[C@@H](S)[C@H](N)CCS(=O)(=O)O)C(=O)O
8.44 | – | 5.92 | 7.77 | CC[C@@H](C)[C@H](NC(=O)[C@H](S)[C@H](N)CCS(=O)(=O)O)C(=O)N[C@@H](CS(=O)(=O)O)C(=O)O
7.30 | < 4.00 | – | – | CC[C@@H](C)[C@H](NC(=O)[C@@H](S)[C@@H](N)CCS(=O)(=O)O)C(=O)N[C@@H](CC(=O)O)C(=O)O
6.53 | < 4.00 | – | – | CC[C@H](C)[C@@H](NC(=O)[C@@H](S)[C@H](N)CCS(=O)(=O)O)C(=O)N[C@@H](CC(=O)O)C(=O)O
6.55 | < 4.00 | – | – | CC[C@@H](C)[C@H](NC(=O)[C@@H](S)[C@H](N)CCS(=O)(=O)O)C(=O)N[C@H](CC(=O)O)C(=O)O
7.28 | < 4.00 | – | – | CC[C@@H](C)[C@H](NC(=O)[C@@H](S)[C@H](N)CCS(=O)(=O)O)C(=O)N[C@@H](CC(=O)O)C(=O)O
7.40 | < 5.00 | – | – | CC[C@@H](C)[C@H](NC(=O)[C@H](S)[C@H](N)CCS(=O)(=O)O)C(=O)O
6.04 | < 5.00 | – | – | CC[C@@H](C)[C@H](NC(=O)[C@@H](S)[C@H](N)CCP(=O)(O)O)C(=O)N[C@@H](CC(=O)O)C(=O)O

pKi (Glutamyl aminopeptidase) | pKi (Aminopeptidase N) | pKi [1] | pKi (Neprilysin) | SMILES
6.62 | – | – | – | CC[C@@H](C)[C@H](NC(=O)[C@@H](S)[C@H](N)CCS(=O)(=O)O)C(=O)N1CCC(C(=O)O)[C@@H]1C(=O)O (some centres undefined)
8.42 | – | 5.96 | 6.28 | CC[C@@H](C)[C@H](NC(=O)[C@H](S)[C@H](N)CCS(=O)(=O)O)C(=O)N1CCC(C(=O)O)[C@@H]1C(=O)O (some centres undefined)
7.57 | 4.32 | – | – | N[C@H](CCS(=O)(=O)O)[C@H](S)C(=O)N[C@@H](Cc1ccc(O)cc1)C(=O)N[C@@H](CC(=O)O)C(=O)O
6.57 | < 5.00 | – | – | CC[C@@H](C)[C@H](NC(=O)[C@@H](S)[C@H](N)CCC(=O)O)C(=O)N[C@@H](CC(=O)O)C(=O)O
7.70 | 4.64 | – | – | CC[C@@H](C)[C@H](NC(=O)[C@H](S)[C@@H](N)CCS(=O)(=O)O)C(=O)N[C@@H](CC(=O)O)C(=O)O
7.89 | 6.92 | – | – | CC[C@@H](C)[C@H](NC(=O)[C@H](S)[C@@H](N)CCC(=O)O)C(=O)N[C@@H](CC(=O)O)C(=O)O
8.03 | – | 6.18 | 6.28 | N[C@H](CCS(=O)(=O)O)[C@@H](S)C(=O)N[C@@H](Cc1ccc(O)cc1)C(=O)N[C@@H](CCS(=O)(=O)O)C(=O)O
6.84 | < 5.00 | – | – | CC[C@@H](C)[C@H](NC(=O)[C@H](S)[C@H](N)CCS(=O)(=O)O)C(N)=O
8.45 | < 5.00 | 5.74 | 8.40 | CC[C@@H](C)[C@H](NC(=O)[C@H](S)[C@H](N)CCC(=O)O)C(=O)N[C@@H](CC(=O)O)C(=O)O
7.92 | < 5.00 | 5.66 | 8.27 | CC[C@@H](C)[C@H](NC(=O)[C@H](S)[C@H](N)CCP(=O)(O)O)C(=O)N[C@@H](CC(=O)O)C(=O)O
6.96 | – | – | – | CC[C@@H](C)[C@H](NC(=O)[C@@H](S)[C@H](N)CCS(=O)(=O)O)C(=O)N1CCC(C(=O)O)[C@H]1C(=O)O (some centres undefined)
7.13 | – | – | – | N[C@H](CCS(=O)(=O)O)[C@H](S)C(=O)N[C@@H](Cc1ccc(O)cc1)C(=O)N[C@@H](CCS(=O)(=O)O)C(=O)O
8.49 | < 4.00 | 5.92 | 7.66 | CC[C@@H](C)[C@H](NC(=O)[C@H](S)[C@H](N)CCS(=O)(=O)O)C(=O)N[C@@H](CC(=O)O)C(=O)O
8.27 | < 4.00 | – | – | CC[C@@H](C)[C@H](NC(=O)[C@H](S)[C@H](N)CCS(=O)(=O)O)C(=O)N[C@H](CC(=O)O)C(=O)O
7.83 | < 4.00 | – | – | CC[C@H](C)[C@@H](NC(=O)[C@H](S)[C@H](N)CCS(=O)(=O)O)C(=O)N[C@@H](CC(=O)O)C(=O)O
7.08 | – | – | – | CC[C@@H](C)[C@H](NC(=O)[C@@H](S)[C@H](N)CCS(=O)(=O)O)C(=O)N[C@@H](CS(=O)(=O)O)C(=O)O

From ChEMBL document CHEMBL1132539 (J Med Chem, 1999)
